From ChEMBL document CHEMBL2074344, “Active efflux of the 5-HT(1A) receptor agonist flesinoxan via P-glycoprotein at the blood-brain barrier” (Eur J Pharm Sci, 2001)

How the values were obtained:
[1] = target: ATP-dependent translocase ABCB1 (Mus musculus, UniProt P21447); experiment: TP_TRANSPORTER: increase in brain concentration in mdr1a(-/-) mouse; format: functional, organism-based; settings: in vivo
[2] = target: ATP-dependent translocase ABCB1 (Homo sapiens, UniProt P08183); experiment: TP_TRANSPORTER: transepithelial transport (basal to apical) in MDR1-expressing LLC-PK1 cells; format: functional, cell-based; settings: pig
Sequence of ATP-dependent translocase ABCB1 (Homo sapiens, UniProt P08183) (P08183 whole entry): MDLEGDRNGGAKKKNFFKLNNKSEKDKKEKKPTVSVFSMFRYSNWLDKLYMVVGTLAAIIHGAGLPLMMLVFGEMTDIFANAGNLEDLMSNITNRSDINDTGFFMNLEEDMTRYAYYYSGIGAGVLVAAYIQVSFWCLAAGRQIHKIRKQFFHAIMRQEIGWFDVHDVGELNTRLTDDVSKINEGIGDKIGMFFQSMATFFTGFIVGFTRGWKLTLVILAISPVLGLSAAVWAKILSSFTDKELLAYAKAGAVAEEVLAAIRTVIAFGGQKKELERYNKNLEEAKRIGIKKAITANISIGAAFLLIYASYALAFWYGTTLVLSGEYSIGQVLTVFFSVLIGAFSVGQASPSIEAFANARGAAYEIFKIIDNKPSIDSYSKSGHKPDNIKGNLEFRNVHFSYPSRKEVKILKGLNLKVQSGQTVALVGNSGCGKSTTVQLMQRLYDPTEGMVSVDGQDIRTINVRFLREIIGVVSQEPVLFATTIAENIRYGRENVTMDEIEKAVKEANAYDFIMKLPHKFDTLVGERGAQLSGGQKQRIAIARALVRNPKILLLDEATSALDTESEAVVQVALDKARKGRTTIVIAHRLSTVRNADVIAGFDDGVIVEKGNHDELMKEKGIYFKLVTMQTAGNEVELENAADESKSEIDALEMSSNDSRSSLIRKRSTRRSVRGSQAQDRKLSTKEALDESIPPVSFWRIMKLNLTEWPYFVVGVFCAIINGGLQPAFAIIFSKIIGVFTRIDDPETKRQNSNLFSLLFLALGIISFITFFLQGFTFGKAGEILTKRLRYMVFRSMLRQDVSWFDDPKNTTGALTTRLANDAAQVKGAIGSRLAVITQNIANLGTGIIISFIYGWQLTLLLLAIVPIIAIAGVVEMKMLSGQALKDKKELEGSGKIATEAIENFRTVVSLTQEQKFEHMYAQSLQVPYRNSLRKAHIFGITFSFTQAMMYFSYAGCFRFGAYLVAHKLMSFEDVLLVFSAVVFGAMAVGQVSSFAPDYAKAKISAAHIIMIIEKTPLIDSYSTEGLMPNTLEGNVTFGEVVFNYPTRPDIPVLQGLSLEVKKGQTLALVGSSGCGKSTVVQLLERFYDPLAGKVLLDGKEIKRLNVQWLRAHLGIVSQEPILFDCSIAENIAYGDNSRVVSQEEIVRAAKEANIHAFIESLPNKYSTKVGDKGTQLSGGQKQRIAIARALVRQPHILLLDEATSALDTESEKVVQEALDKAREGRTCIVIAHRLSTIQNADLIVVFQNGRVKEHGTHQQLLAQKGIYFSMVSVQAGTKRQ

Sequence of ATP-dependent translocase ABCB1 (Mus musculus, UniProt P21447) (P21447 whole entry): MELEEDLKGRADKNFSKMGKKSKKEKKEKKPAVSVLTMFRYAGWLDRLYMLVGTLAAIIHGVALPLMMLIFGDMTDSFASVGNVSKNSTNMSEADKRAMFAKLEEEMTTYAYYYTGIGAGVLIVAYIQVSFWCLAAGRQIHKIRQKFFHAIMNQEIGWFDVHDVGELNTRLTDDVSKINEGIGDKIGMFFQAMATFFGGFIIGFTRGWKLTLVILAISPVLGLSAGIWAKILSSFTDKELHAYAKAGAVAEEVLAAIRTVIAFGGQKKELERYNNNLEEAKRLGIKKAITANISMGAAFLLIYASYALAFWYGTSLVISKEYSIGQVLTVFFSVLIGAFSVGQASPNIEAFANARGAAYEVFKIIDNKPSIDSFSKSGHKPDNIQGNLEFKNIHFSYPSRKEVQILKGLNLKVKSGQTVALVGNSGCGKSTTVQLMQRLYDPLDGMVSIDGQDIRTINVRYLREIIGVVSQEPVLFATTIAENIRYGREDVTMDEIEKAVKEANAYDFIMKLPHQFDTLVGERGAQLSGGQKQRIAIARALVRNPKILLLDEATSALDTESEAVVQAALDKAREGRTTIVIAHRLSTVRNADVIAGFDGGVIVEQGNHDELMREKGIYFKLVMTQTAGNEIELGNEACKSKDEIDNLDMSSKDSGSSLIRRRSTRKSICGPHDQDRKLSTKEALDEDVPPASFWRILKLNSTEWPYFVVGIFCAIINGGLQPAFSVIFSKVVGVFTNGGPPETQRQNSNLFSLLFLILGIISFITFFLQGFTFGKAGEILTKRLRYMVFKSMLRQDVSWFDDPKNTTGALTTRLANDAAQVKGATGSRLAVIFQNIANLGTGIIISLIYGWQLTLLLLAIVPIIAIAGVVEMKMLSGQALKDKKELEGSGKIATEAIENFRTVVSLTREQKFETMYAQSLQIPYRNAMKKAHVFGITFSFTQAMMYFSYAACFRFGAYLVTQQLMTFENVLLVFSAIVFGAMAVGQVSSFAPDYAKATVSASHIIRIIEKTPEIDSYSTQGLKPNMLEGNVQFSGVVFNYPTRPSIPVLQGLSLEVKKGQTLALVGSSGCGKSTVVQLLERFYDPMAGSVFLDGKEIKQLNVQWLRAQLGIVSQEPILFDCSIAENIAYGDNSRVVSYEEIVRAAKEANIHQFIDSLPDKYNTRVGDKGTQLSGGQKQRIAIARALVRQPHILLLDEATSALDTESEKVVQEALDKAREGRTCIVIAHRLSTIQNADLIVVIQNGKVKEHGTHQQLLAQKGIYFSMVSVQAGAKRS

Activity [1]: substrate [+]
Activity [2]: substrate [+]
SMILES: O=C(NCCN1CCN(c2cccc3c2OC[C@H](CO)O3)CC1)c1ccc(F)cc1 [FLESINOXAN]
